Source: patent US20180325923A1, “FATTY ACID ACETYLATED SALICYLATES AND THEIR USES” (Catabasis Pharmaceuticals, Inc., priority 2008, published 2018)
Read-outs that look alike come from different tables or passages of the source.

Test system: TNFα secretion in RAW 264.7 macrophages
Assay: TNFα release assay in RAW 264.7 macrophages stimulated with LPS
Assay type: cell-based, mouse
Excerpt: The purpose of this assay is to measure the ability of small molecules to inhibit the secretion of TNFα in cultured macrophages stimulated with lipopolysaccharide (LPS). Treatment of macrophages with LPS activates inflammatory cytokine pathways primarily through the TLR4-NFκB signaling axis. […] Dexamethasone, a potent agonist of the glucocorticoid receptor is used a positive control for inhibition of TNFα release. Day 1: Seed RAW 264.7 macrophages into 96 well culture plates. Remove culture media from RAW 264.7 cell growing in a […] tissue culture flask (cells should be at […] confluence) and add 10 ml of warmed complete growth media (DMEM+10% FBS+1× pen/step). The cells are scraped into suspension using a sterile plate scraper and homogenized by pipetting up and down with a 10 ml serological pipette. The cell concentration is determined using a clinical hematoctyometer. Cells are then diluted to 150,000 cells per ml into growth media. The diluted cells are then transferred to a sterile reagent reservoir and 100 μl of cell suspension is pipetted into each well of a 96 well culture plate using a multichannel pipette (15,000 cells/well). Plates are then incubated at 37° C. under normal tissue culture growth conditions (37° C., humidified CO2 chamber). Day 2: The test compound sample plate is prepared. Test compounds are prepared in growth media. Compounds are delivered to media from 1000× stocks in 100% DMSO (e.g. for a 10 μM final concentration of test compound, deliver 2 μl of 10 mM test compound to 2 ml of media). At least 150 μl of 1× compound in media is added to 96 well sample plate. Note: the perimeter wells of the 96 well plate are not used to avoid edge effects. Twelve sample wells are prepared with media plus 0.1% DMSO (these samples will serve as the vehicle controls; LPS-stimulated and non-stimulated. 10 μM dexamethasone is used as a positive control). Culture plates are then returned to the growth incubator for 2 hours. Cells are stimulated afterwards by adding 25 μl of 50 ng/ml LPS is added to every well (except the 6 unstimulated vehicle control wells: final concentration of 10 ng/ml LPS. Plates are returned to growth incubator for 3 hours. Afterwards, 100 μl of media supernatant is removed and transferred to a 96 well v-bottom sample plate. The media supernatant plate is centrifuged for 5 minutes at 1000 rpm in a swing-bucket centrifuge, pelleting any cellular debris that may remain in supernatant. 80 μl of supernatant is removed from sample plate and transferred to a fresh v-bottom 96 well plate. Cell viability is measured using Celltiter-glo kit. By measuring cell viability, a given compound's effects on TNFα secretion can determine whether effects are due to cytotoxicity or to true inhibition of inflammatory signaling. Add 100 μl of Celltiter-glo reagent to each well of the cell culture plate and afterwards measure the luminescence signal (CPS) of the plate using the Victor 5 plate reader (0.3 second read; 60 second plate shaking prior to read). Cell viability of a given compound at a given concentration is computed as follows: Cell viability=CPS Sample/(Average CPS unstimulated controls)*100 […] Follow Invitrogen/Biosource manufacture's protocol for the mouse TNFα ELISA. Chromogen development is typically conducted for 20-30 minutes as described in the manufacturer's protocol. After addition of stop solution, measure OD 450 nm using the Victor 5 plate reader (0.1 second/well scan). Determine the TNFα secretion percent of control. The following formula is used to determine the TNFα secretion percent of control: [formula] For each test compound, TNFα secretion percent of control can be plotted as a function of compound concentration using a four parameter dose-response curve fit equation (XLFIT Model #205): fit=([…]=([…]=(y-fit) […] A sample graph showing the data obtained by using one of the Compounds of the Invention in the procedure described above in Example 6 is shown in FIG. 2.

[1] = RAW264.7, RAW 264.7 macrophages, 10 ng/ml LPS, mouse TNFα ELISA, read-out: TNFα Secretion, IC50 μM

Row | IC50 [1] [µM] | SMILES | further results
1 | 65.3 | CC/C=C\C/C=C\C/C=C\C/C=C\C/C=C\C/C=C\CCC(=O)NC(CC(C)C)C(=O)Nc1ccc(O)c(C(=O)O)c1 (stereo not shown) [III-6, 5-(2-(4Z,7Z,10Z,13Z,16Z,19Z)-docosa-4,7,10,13,16,19-hexaenamido-4-methylpentanamido)-2-hydroxybenzoic acid] | 
2 |  | CC/C=C\C/C=C\C/C=C\C/C=C\C/C=C\C/C=C\CCC(=O)NC(CC(C)C)C(=O)Oc1ccccc1C(=O)OCC (stereo not shown) [Compound I-1, ethyl 2-(2-(4Z,7Z,10Z,13Z,16Z,19Z)-docosa-4,7,10,13,16,19-hexaenamido-4-methylpentanoyloxy)benzoate] | inhibition at 6.2 µM (Mus musculus, RAW264.7, read-out: TNFα Secretion, % Inhibition): 24.4%
3 | 69.2 | CC/C=C\C/C=C\C/C=C\C/C=C\C/C=C\C/C=C\CCC(=O)Oc1ccccc1C(=O)O [Ia-1, 2-((4Z,7Z,10Z,13Z,16Z,19Z)-docosa-4,7,10,13,16,19-hexaenoyloxy)benzoic acid] | 
4 | 15 | CC/C=C\C/C=C\C/C=C\C/C=C\C/C=C\C/C=C\CCC(=O)NCCNC(=O)c1ccccc1O [Compound 31, N-(2-(4Z,7Z,10Z,13Z,16Z,19Z)-docosa-4,7,10,13,16,19-hexaenamidoethyl)-2-hydroxybenzamide] | 
5 | > 100 | CC/C=C\C/C=C\C/C=C\C/C=C\C/C=C\C/C=C\CCC(=O)O [DHA, all-cis-4,7,10,13,16,19-docosahexaenoic acid, reference compound] | 
6 |  | CC/C=C\C/C=C\C/C=C\C/C=C\C/C=C\C/C=C\CCC(=O)Nc1ccc(O)c(C(=O)O)c1 [III-1, 5-(4Z,7Z,10Z,13Z,16Z,19Z)-docosa-4,7,10,13,16,19-hexaenamido-2-hydroxybenzoic acid] | IC50 (Mus musculus, RAW264.7, read-out: TNFα Secretion, IC50 μM): 146 µM
7 | > 100 | Nc1ccc(O)c(C(=O)O)c1 [Compound 5-ASA, 5-aminosalicylic acid, reference compound] | 
